Each block holds one compound with its values, some of them ahead of it.
Target: T1, human TLR7 (Homo sapiens, UniProt Q9NYK1)
T1 construct: host or cells: HEK293 (HEK-Blue hTLR7)
T1 sequence (Q9NYK1 27-1049): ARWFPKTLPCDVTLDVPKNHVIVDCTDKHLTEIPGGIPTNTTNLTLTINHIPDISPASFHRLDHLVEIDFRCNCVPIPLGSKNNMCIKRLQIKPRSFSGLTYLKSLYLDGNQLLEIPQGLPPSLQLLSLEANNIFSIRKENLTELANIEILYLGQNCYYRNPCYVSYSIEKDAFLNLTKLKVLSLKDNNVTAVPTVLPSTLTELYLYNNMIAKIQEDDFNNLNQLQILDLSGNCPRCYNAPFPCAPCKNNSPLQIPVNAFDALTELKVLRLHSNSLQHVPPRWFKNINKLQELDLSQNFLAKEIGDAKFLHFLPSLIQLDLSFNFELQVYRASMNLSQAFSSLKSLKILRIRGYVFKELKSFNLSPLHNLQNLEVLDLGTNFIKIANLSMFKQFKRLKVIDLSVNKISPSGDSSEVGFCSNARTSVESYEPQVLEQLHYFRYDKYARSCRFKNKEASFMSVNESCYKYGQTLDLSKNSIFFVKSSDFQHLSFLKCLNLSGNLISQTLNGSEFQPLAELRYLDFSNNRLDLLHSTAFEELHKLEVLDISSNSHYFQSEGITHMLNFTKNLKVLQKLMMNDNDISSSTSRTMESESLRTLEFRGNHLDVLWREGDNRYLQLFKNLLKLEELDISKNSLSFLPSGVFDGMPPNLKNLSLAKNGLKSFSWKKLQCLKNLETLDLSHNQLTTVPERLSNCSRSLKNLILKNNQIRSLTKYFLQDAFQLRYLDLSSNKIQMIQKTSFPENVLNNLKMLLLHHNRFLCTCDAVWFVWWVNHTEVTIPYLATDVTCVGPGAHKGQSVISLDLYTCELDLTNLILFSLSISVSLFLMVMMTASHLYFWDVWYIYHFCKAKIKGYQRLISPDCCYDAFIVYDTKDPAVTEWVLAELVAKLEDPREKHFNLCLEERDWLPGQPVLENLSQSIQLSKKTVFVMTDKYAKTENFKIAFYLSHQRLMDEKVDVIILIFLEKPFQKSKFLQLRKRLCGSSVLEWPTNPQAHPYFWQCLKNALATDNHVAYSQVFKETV
Assay: HEK293-Blue-hTLR-7 cells assay (SEAP reporter, R848 stimulation)
Assay type: cell-based
Conditions: HEK293-Blue-hTLR7 cells, R848, 20 hrs; read-out: HEK/hTLR7 IC50
Summary of the method: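 Stable HEK293-Blue-hTLR7 cells (NF-κB/AP-1-driven SEAP reporter) were co-incubated with serially diluted compound (1% DMSO final) and R848 for 20 hrs at 37 °C. Supernatant SEAP was developed with QUANTI-Blue substrate for 2 hrs at 37 °C and absorbance read at 620–655 nm; antagonism seen as reduced reporter signal.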

SMILES: CO[C@@H]1CN(c2ccc3c(n2)[C@@H](C)CN(c2cc(C)nc4c2cnn4C)C3)C[C@H]1N [Example 63, (3R,4R)-4-methoxy-1-[(8S)-6-(1,6-dimethylpyrazolo[3,4-b]pyridin-4-yl)-8-methyl-7,8-dihydro-5H-1,6-naphthyridin-2-yl]pyrrolidin-3-amine]
IC50: 5 nM

SMILES: C[C@H]1CN(c2ccnc3c2cnn3C)Cc2ccc(N3C4CCC3CNC4)cc21 [Example 27, (4R)-6-(3,8-diazabicyclo[3.2.1]octan-8-yl)-4-methyl-2-(1-methylpyrazolo[3,4-b]pyridin-4-yl)-3,4-dihydro-1H-isoquinoline]
IC50: 4 nM

SMILES: C[C@H]1CN(c2ccnc3c2cnn3C)Cc2ccc(OC[C@@H]3CNCCN3)cc21 [Example 19, (4R)-4-methyl-2-(1-methylpyrazolo[3,4-b]pyridin-4-yl)-6-[[(2S)-piperazin-2-yl]methoxy]-3,4-dihydro-1H-isoquinoline]
IC50: 8 nM

SMILES: C[C@H]1CN(c2ccnc3c2cnn3C)Cc2ccc(N3C[C@@H]4CNCCN4C3=O)cc21 [Example 25, (8aS)-2-[(4R)-4-methyl-2-(1-methylpyrazolo[3,4-b]pyridin-4-yl)-3,4-dihydro-1H-isoquinolin-6-yl]-1,5,6,7,8,8a-hexahydroimidazo[1,5-a]pyrazin-3-one]
IC50: 15 nM

SMILES: C[C@H]1CN(c2ccnc3c2cnn3C)Cc2ccc(N3C[C@@H]4CCNC[C@@H]4C3=O)cc21 (single isomer, unassigned) [Example 57]
IC50: 8 nM

Continued, values first:

IC50: 17 nM
SMILES: Cc1cc(N2Cc3ccc(N4CC5(CNCCO5)C4)nc3[C@@H](C)C2)c2cnn(C)c2n1 [Example 68, 2-[(8S)-6-(1,6-dimethylpyrazolo[3,4-b]pyridin-4-yl)-8-methyl-7,8-dihydro-5H-1,6-naphthyridin-2-yl]-5-oxa-2,8-diazaspiro[3.5]nonane]

IC50: 10 nM
SMILES: Cc1cc(N2Cc3cnc(N4CCNC5(CC5)C4)cc3[C@@H](C)C2)c2cnn(C)c2n1 [Example 75, (4R)-6-(4,7-diazaspiro[2.5]octan-7-yl)-2-(1,6-dimethylpyrazolo[3,4-b]pyridin-4-yl)-4-methyl-3,4-dihydro-1H-2,7-naphthyridine]

IC50: 19 nM
SMILES: Cc1cc(N2Cc3cnc(OCCN4CCNCC4)cc3[C@@H](C)C2)c2cnn(C)c2n1 [Example 77, (4R)-2-(1,6-dimethylpyrazolo[3,4-b]pyridin-4-yl)-4-methyl-6-(2-piperazin-1-ylethoxy)-3,4-dihydro-1H-2,7-naphthyridine]
